Like-named read-outs stand apart in the source and are kept apart here.
Columns and labels:
Assay type in all cases: biochemical
[1] = molecular target: T1, human Yes1 enzyme (Homo sapiens, UniProt P07947); experiment: Yes1 enzyme inhibitory activity (time-resolved fluorometry, biotinylated peptide phosphorylation); conditions: read-out: YES_IC50
T1 construct: made in house
Procedure, shortened: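 Inhibition was expressed against a compound-free control to give IC50, using TR-FRET read-out (Eu-cryptate anti-pTyr antibody, streptavidin-XL665).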

[2] = molecular target: T2, human Src enzyme (Homo sapiens, UniProt P12931); experiment: Src enzyme inhibitory activity (time-resolved fluorometry, biotinylated peptide phosphorylation); conditions: read-out: SRC_IC50
T2 construct: purchased Carna Biosciences, Inc. 08-173
Procedure, shortened: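 Compounds were tested for blocking tyrosine phosphorylation of a biotinylated peptide substrate by recombinant human Src. Phosphorylated product was quantified by time-resolved fluorometry using europium cryptate and XL665 conjugates, and IC50 was calculated against the compound-free control.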

[3] = molecular target: T3, human Lck enzyme (Homo sapiens, UniProt P06239); experiment: Lck enzyme inhibitory activity (time-resolved fluorometry, biotinylated peptide phosphorylation); conditions: read-out: LCK_IC50
T3 construct: purchased Carna Biosciences, Inc. 08-170
Procedure, shortened: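 Readout pairs a europium cryptate-labelled anti-phosphotyrosine antibody with XL665-streptavidin, measured by time-resolved fluorescence. IC50 derived from percent inhibition against untreated controls.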

[4] = biotinylated peptide phosphorylation

T1 sequence (P07947 whole entry): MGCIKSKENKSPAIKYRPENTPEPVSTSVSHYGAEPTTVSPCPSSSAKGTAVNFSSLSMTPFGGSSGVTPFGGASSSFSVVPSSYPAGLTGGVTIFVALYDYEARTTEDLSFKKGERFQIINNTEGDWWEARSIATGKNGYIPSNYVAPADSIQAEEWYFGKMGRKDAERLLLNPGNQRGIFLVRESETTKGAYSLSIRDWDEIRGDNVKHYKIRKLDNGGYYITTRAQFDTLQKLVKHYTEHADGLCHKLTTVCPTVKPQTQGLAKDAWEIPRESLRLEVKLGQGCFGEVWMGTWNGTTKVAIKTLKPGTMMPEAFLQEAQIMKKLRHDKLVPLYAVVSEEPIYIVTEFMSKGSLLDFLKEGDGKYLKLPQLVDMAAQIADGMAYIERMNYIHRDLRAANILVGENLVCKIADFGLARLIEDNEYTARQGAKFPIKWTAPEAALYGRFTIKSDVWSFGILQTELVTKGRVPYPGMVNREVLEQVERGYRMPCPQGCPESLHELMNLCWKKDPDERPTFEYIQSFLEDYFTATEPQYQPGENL
T2 sequence (P12931 whole entry): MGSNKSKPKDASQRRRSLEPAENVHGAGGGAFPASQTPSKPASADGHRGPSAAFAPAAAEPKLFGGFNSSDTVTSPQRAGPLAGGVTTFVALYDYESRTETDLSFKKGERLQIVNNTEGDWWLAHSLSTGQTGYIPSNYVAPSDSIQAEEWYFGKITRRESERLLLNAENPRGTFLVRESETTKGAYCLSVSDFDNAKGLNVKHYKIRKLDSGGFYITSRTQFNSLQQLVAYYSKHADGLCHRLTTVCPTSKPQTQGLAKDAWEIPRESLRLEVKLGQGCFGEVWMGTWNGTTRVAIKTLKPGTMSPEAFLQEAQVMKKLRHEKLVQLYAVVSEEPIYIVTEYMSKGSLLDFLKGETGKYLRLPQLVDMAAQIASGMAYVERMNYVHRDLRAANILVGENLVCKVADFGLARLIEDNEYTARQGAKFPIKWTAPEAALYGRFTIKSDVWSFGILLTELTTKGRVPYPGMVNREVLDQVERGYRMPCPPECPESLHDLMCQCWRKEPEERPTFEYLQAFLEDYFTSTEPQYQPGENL
T3 sequence (P06239 whole entry): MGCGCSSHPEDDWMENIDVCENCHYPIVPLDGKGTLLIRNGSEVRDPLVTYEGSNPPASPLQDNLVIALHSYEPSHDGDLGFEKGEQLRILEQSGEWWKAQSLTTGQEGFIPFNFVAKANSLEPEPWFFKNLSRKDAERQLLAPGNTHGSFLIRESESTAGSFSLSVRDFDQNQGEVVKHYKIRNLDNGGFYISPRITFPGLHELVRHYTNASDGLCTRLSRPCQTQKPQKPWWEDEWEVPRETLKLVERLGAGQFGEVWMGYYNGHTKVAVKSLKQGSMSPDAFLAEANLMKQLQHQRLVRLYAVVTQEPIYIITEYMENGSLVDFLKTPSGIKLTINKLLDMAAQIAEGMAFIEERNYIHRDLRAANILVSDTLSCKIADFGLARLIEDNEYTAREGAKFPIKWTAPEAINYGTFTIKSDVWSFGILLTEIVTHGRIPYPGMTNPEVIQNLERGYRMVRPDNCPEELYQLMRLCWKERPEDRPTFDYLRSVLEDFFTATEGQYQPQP

SMILES: Cc1cc(Oc2c(F)cccc2F)ncc1-n1ncc(C(=O)c2cc3cc(F)c(N4CC5(CCCC5)NS4(=O)=O)cc3[nH]2)c1N [Example 5-1-399, [5-amino-1-[6-(2,6-difluorophenoxy)-4-methylpyridin-3-yl]pyrazol-4-yl]-[6-(2,2-dioxo-2λ6-thia-1,3-diazaspiro[4.4]nonan-3-yl)-5-fluoro-1H-indol-2-yl]methanone]
- IC50 [1, 4]: 5.7 nM
- IC50 [2, 4]: 250 nM
- IC50 [3, 4]: 53 nM

SMILES: Cc1cc(Oc2ccccc2F)ncc1-n1ncc(C(=O)c2cc3cc(F)c(NS(C)(=O)=O)cc3[nH]2)c1N [Example 4-7-001, N-{2-{5-amino-1-[6-(2-fluorophenoxy)-4-methylpyridin-3-yl]pyrazole-4-carbonyl}-5-fluoro-1H-indol-6-yl}methanesulfonamide]
- IC50 [1, 4]: 2.2 nM
- IC50 [2, 4]: 41 nM
- IC50 [3, 4]: 10 nM

SMILES: Cc1cc(Oc2c(F)cccc2F)ncc1-n1ncc(C(=O)c2cc3cc(OC4CCN(C5CCCC5)CC4)c(-c4ccccc4C(F)(F)F)cc3[nH]2)c1N [Example 5-1-387, [5-amino-1-[6-(2,6-difluorophenoxy)-4-methylpyridin-3-yl]pyrazol-4-yl]-[5-(1-cyclopentylpiperidin-4-yl)oxy-6-[2-(trifluoromethyl)phenyl]-1H-indol-2-yl] methanone]
- IC50 [1]: 3.1 nM
- IC50 [2]: 190 nM
- IC50 [3]: 29 nM

SMILES: Cc1cc(Oc2c(F)cccc2F)ncc1-n1ncc(C(=O)c2cc3cc(OC4CCN(C(C)C)CC4)c(N4CCN(S(C)(=O)=O)CC4)cc3[nH]2)c1N [Example 5-1-187, [5-amino-1-[6-(2,6-difluorophenoxy)-4-methylpyridin-3-yl]pyrazol-4-yl]-[6-(4-methylsulfonylpiperazin-1-yl)-5-(1-propan-2-ylpiperidin-4-yl)oxy-1H-indol-2-yl]methanone]
- IC50 [1]: 0.62 nM
- IC50 [2]: 3.2 nM
- IC50 [3]: 2.3 nM

SMILES: Cc1ccccc1Oc1cc(C)c(-n2ncc(C(=O)c3cc4cc(Cl)c(NS(C)(=O)=O)cc4[nH]3)c2N)cn1 [Example 4-2-090, N-[2-[5-amino-1-[4-methyl-6-(2-methylphenoxy)pyridin-3-yl]pyrazole-4-carbonyl]-5-chloro-1H-indol-6-yl]methanesulfonamide]
- IC50 [1, 4]: 1.5 nM
- IC50 [2, 4]: 110 nM
- IC50 [3, 4]: 17 nM

SMILES: Cc1cc(Oc2ccccc2F)ccc1-n1ncc(C(=O)c2cc3cc(F)c(N4C(=O)NC5(CCCC5)C4=O)cc3[nH]2)c1N [Example 5-1-438, 3-[2-[5-amino-1-[4-(2-fluorophenoxy)-2-methylphenyl]pyrazolo-4-carbonyl]-5-fluoro-1H-indol-6-yl]-1,3-diazaspiro[4.4]nonane-2,4-dione]
- IC50 [1, 4]: 1.9 nM
- IC50 [2, 4]: 120 nM
- IC50 [3, 4]: 15 nM

SMILES: Cc1cc(Oc2ccccc2F)ccc1-n1ncc(C(=O)c2cc3cc(OC(F)F)c(N4CCOC4=O)cc3[nH]2)c1N [Example 4-21-007, 3-[2-[5-amino-1-[4-(2-fluorophenoxy)-2-methylphenyl]pyrazole-4-carbonyl]-5-(difluoromethoxy)-1H-indol-6-yl]-1,3-oxazolidin-2-one]
- IC50 [1, 4]: 0.51 nM
- IC50 [2, 4]: 8.7 nM
- IC50 [3, 4]: 6.5 nM

SMILES: COc1cc2cc(C(=O)c3cnn(-c4ccc(Oc5ccccc5F)cc4C)c3N)[nH]c2cc1NS(=O)(=O)CCCF [Example 4-13-002, N-[2-[5-amino-1-[4-(2-fluorophenoxy)-2-methylphenyl]pyrazole-4-carbonyl]-5-methoxy-1H-indol-6-yl]-3-fluoropropane-1-sulfonamide]
- IC50 [1, 4]: 2.4 nM
- IC50 [2, 4]: 27 nM
- IC50 [3, 4]: 20 nM

SMILES: COc1cc2cc(C(=O)c3cnn(-c4cnc(Oc5ccccc5F)cc4C)c3N)[nH]c2cc1NS(C)(=O)=O [Example 4-1-008, N-[2-[5-amino-1-[6-(2-fluorophenoxy)-4-methylpyridin-3-yl]pyrazole-4-carbonyl]-5-methoxy-1H-indol-6-yl]methanesulfonamide]
- IC50 [1, 4]: 0.69 nM
- IC50 [2, 4]: 52 nM
- IC50 [3, 4]: 4 nM

SMILES: Cc1cc2cc(C(=O)c3cnn(-c4cnc(Oc5c(F)cccc5F)cc4C)c3N)[nH]c2cc1NS(=O)(=O)c1cccc(F)c1 [Example 5-1-551, N-[2-[5-amino-1-[6-(2,6-difluorophenoxy)-4-methylpyridin-3-yl]pyrazole-4-carbonyl]-5-methyl-1H-indol-6-yl]-3-fluorobenzenesulfonamide]
- IC50 [1, 4]: 19 nM
- IC50 [2, 4]: 970 nM
- IC50 [3, 4]: 240 nM

SMILES: Cc1cc(Oc2c(F)cccc2F)ncc1-n1ncc(C(=O)c2cc3cc(OCC(F)F)c(NS(=O)(=O)c4ccc(Cl)cc4)cc3[nH]2)c1N [Example 5-1-298, N-[2-[5-amino-1-[6-(2,6-difluorophenoxy)-4-methylpyridin-3-yl]pyrazole-4-carbonyl]-5-(2,2-difluoroethoxy)-1H-indol-6-yl]-4-chlorobenzenesulfonamide]
- IC50 [1]: 8.9 nM
- IC50 [2]: 630 nM
- IC50 [3]: 93 nM

SMILES: Cc1cc(Oc2ccccc2F)ncc1-n1ncc(C(=O)c2cc3cc(OCC(F)F)c(NS(=O)(=O)N4CCOCC4)cc3[nH]2)c1N [Example 4-22-006, N-[2-[5-amino-1-[6-(2-fluorophenoxy)-4-methylpyridin-3-yl]pyrazole-4-carbonyl]-5-(2,2-difluoroethoxy)-1H-indol-6-yl]morpholine-4-sulfonamide]
- IC50 [1, 4]: 1.9 nM
- IC50 [2, 4]: 130 nM
- IC50 [3, 4]: 51 nM

SMILES: Cc1cc(Oc2ccccc2F)cc(C)c1-n1ncc(C(=O)c2cc3cc(F)c(NS(=O)(=O)C4CC4)cc3[nH]2)c1N [Example 4-2-042, N-[2-[5-amino-1-[4-(2-fluorophenoxy)-2,6-dimethylphenyl]pyrazole-4-carbonyl]-5-fluoro-1H-indol-6-yl]cyclopropanesulfonamide]
- IC50 [1, 4]: 32 nM
- IC50 [2, 4]: 840 nM
- IC50 [3, 4]: 370 nM

SMILES: Cc1cc(Oc2ccccc2F)ccc1-n1ncc(C(=O)c2cc3cc(OCC(F)F)c(N4CCOCC4)cc3[nH]2)c1N [Example 4-1-015, [5-amino-1-[4-(2-fluorophenoxy)-2-methylphenyl]pyrazol-4-yl]-[5-(2,2-difluoroethoxy)-6-morpholin-4-yl-1H-indol-2-yl]methanone]
- IC50 [1, 4]: 1 nM
- IC50 [2, 4]: 14 nM
- IC50 [3, 4]: 10 nM

SMILES: Cc1ccccc1Oc1cc(C)c(-n2ncc(C(=O)c3cc4cc(F)c(NS(C)(=O)=O)cc4[nH]3)c2N)cn1 [Example 4-2-036, N-[2-[5-amino-1-[4-methyl-6-(2-methylphenoxy)pyridin-3-yl]pyrazole-4-carbonyl]-5-fluoro-1H-indol-6-yl]methanesulfonamide]
- IC50 [1, 4]: 1.5 nM
- IC50 [2, 4]: 60 nM
- IC50 [3, 4]: 21 nM

SMILES: Cc1cc(Oc2ccccc2F)ccc1-n1ncc(C(=O)c2cc3cc(OCC(F)F)c(C4CCN(C(=O)OC(C)(C)C)CC4)cc3[nH]2)c1N [Example 5-1-068, tert-Butyl 4-[2-[5-amino-1-[4-(2-fluorophenoxy)-2-methylphenyl]pyrazole-4-carbonyl]-5-(2,2-difluoroethoxy)-1H-indol-6-yl] piperidine-1-carboxylate]
- IC50 [1]: 5.6 nM
- IC50 [2]: 15 nM
- IC50 [3]: 8.4 nM

SMILES: Cc1cc(Oc2ccccc2F)ncc1-n1ncc(C(=O)c2cc3cc(OCC(F)F)c(NS(=O)(=O)C4CC4)cc3[nH]2)c1N [Example 4-24-027, N-[2-[5-amino-1-[6-(2-fluorophenoxy)-4-methylpyridin-3-yl]pyrazole-4-carbonyl]-5-(2,2-difluoroethoxy)-1H-indol-6-yl]cyclopropanesulfonamide]
- IC50 [1, 4]: 3.2 nM
- IC50 [2, 4]: 140 nM
- IC50 [3, 4]: 55 nM

SMILES: Cc1cc(Oc2ccccc2F)ccc1-n1ncc(C(=O)c2cc3cc(NS(C)(=O)=O)c(F)cc3[nH]2)c1N [Example 4-2-097, N-[2-[5-amino-1-[4-(2-fluorophenoxy)-2-methylphenyl]pyrazole-4-carbonyl]-6-fluoro-1H-indol-5-yl]methanesulfonamide]
- IC50 [1, 4]: 0.28 nM
- IC50 [2, 4]: 8.1 nM
- IC50 [3, 4]: 1.8 nM

SMILES: Cc1ccc(S(=O)(=O)Nc2cc3[nH]c(C(=O)c4cnn(-c5cnc(Oc6c(F)cccc6F)cc5C)c4N)cc3cc2OCC(F)F)cc1 [Example 5-1-300, N-[2-[5-amino-1-[6-(2,6-difluorophenoxy)-4-methylpyridin-3-yl]pyrazole-4-carbonyl]-5-(2,2-difluoroethoxy)-1H-indol-6-yl]-4-methylbenzenesulfonamide]
- IC50 [1]: 9.5 nM
- IC50 [2]: 730 nM
- IC50 [3]: 140 nM

SMILES: CCOc1cc2cc(C(=O)c3cnn(-c4ccc(Oc5ccccc5F)cc4C)c3N)[nH]c2cc1C1CCN(S(=O)(=O)C2CC2)CC1 [Example 5-1-071, [5-amino-1-[4-(2-fluorophenoxy)-2-methylphenyl]pyrazol-4-yl]-[6-(1-cyclopropylsulfonylpiperidin-4-yl)-5-ethoxy-1H-indol-2-yl]methanone]
- IC50 [1]: 28 nM
- IC50 [2]: 67 nM
- IC50 [3]: 61 nM

SMILES: Cc1cc2cc(C(=O)c3cnn(-c4cnc(Oc5c(F)cccc5F)cc4C)c3N)[nH]c2cc1C1CCN(S(=O)(=O)C2CC2)CC1 [Example 5-1-144, [5-amino-1-[6-(2,6-difluorophenoxy)-4-methylpyridin-3-yl]pyrazol-4-yl]-[6-(1-cyclopropylsulfonylpiperidin-4-yl)-5-methyl-1H-indol-2-yl]methanone]
- IC50 [1]: 5.7 nM
- IC50 [2]: 81 nM
- IC50 [3]: 76 nM

SMILES: Cc1cc(-n2ncc(C(=O)c3cc4cc(OC5CCN(C6CCCC6)CC5)c(Br)cc4[nH]3)c2N)ccc1Oc1ccccc1F [Example 5-1-216, [5-amino-1-[4-(2-fluorophenoxy)-3-methylphenyl]pyrazol-4-yl]-[6-bromo-5-(1-cyclopentylpiperidin-4-yl)oxy-1H-indol-2-yl] methanone]
- IC50 [1]: 1.7 nM
- IC50 [2]: 1000 nM
- IC50 [3]: 47 nM

Source: patent US10479780B2, “Aminopyrazole derivatives” (Chugai Seiyaku Kabushiki Kaisha, priority 2015, dated 2019)
